In ChEMBL document CHEMBL3393028, “Discovery and characterization of MAPK-activated protein kinase-2 prevention of activation inhibitors” (J Med Chem, 2015):
Converted amounts (≈) assume the structure as drawn. The source made the active and inactive calls. The calls are words filed in the database; no cut-off is given here.

What was measured:
[1] = biological target: T1, Mitogen-activated protein kinase 14 (Homo sapiens, UniProt Q16539); assay: Inhibition of p38-alpha (unknown origin) by p38alpha-MBP IoC assay
T1 sequence (Q16539 whole entry): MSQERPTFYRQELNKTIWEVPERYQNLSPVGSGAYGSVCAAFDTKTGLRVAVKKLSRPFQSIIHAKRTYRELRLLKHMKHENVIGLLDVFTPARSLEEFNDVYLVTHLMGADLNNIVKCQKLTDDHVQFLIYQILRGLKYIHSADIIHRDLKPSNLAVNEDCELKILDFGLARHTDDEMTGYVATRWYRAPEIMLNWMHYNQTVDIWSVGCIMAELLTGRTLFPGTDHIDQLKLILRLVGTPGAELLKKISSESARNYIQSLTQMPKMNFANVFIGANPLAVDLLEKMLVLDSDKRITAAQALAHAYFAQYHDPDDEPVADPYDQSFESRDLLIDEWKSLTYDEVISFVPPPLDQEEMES

[2] = biological target: T1, Mitogen-activated protein kinase 14; assay: Inhibition of human recombinant 5'-c-myc, His6-tagged p38-alpha using MK2 (46 to 400) as substrate assessed as inhibition of phosphorylation after 60 mins by ELISA in presence of ATP
[3] = biological target: T1, Mitogen-activated protein kinase 14; assay: Inhibition of human recombinant 5'-c-myc, His6-tagged p38-alpha using MSK1 as substrate assessed as inhibition of phosphorylation after 60 mins by ELISA in presence of ATP
Cytochrome P450 3A4 = Cytochrome P450 3A4 (Homo sapiens, UniProt P08684); assay: Inhibition of CYP3A4 (unknown origin); type: ADME
Sequence of Cytochrome P450 3A4 (P08684 whole entry): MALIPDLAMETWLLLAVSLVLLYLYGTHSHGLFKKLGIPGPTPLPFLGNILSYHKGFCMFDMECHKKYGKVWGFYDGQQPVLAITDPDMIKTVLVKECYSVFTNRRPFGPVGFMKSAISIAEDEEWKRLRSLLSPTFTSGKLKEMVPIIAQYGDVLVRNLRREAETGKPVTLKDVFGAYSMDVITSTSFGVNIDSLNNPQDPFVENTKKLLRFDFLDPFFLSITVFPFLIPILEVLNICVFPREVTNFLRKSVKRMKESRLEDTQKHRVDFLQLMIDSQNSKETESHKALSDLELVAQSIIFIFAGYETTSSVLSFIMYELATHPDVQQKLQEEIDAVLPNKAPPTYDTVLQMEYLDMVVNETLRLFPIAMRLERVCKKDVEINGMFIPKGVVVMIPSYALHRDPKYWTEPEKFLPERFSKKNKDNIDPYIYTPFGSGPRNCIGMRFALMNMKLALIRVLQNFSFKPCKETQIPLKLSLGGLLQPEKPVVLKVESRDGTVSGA

[4] = biological target: T1, Mitogen-activated protein kinase 14; assay: Inhibition of p38-alpha in human TC28 cells assessed as inhibition of IL-1-induced PGE2 production incubated for 20 mins prior to IL-1 challenge measured after 24 hrs by ELISA; type: cell-based
[5] = Fraction unbound in human plasma by equilibrium dialysis method; type: ADME, cell-free
[6] = biological target: Insulin-like growth factor 1 receptor (Homo sapiens) (UniProt P08069); settings: 10 uM
Sequence of Insulin-like growth factor 1 receptor (Homo sapiens) (P08069 31-736 limits assumed): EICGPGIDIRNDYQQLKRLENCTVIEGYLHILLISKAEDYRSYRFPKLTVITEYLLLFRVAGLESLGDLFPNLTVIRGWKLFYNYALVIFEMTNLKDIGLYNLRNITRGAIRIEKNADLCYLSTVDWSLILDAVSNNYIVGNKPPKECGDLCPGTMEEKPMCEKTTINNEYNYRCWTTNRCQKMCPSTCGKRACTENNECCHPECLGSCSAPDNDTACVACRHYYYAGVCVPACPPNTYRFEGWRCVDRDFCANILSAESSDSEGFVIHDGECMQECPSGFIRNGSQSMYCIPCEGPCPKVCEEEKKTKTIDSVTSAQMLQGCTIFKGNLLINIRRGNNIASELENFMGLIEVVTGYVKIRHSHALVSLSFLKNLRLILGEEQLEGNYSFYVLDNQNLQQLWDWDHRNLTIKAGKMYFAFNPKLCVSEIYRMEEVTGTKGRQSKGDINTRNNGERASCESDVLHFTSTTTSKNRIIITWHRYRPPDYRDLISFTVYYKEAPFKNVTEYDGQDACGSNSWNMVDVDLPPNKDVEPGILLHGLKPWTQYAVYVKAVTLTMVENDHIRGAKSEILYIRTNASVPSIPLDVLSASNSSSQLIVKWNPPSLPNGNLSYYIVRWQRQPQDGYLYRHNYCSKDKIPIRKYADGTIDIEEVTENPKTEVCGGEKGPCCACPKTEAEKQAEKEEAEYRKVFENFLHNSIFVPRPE
Sequence of Insulin-like growth factor 1 receptor (Homo sapiens) (P08069 741-1367 limits assumed): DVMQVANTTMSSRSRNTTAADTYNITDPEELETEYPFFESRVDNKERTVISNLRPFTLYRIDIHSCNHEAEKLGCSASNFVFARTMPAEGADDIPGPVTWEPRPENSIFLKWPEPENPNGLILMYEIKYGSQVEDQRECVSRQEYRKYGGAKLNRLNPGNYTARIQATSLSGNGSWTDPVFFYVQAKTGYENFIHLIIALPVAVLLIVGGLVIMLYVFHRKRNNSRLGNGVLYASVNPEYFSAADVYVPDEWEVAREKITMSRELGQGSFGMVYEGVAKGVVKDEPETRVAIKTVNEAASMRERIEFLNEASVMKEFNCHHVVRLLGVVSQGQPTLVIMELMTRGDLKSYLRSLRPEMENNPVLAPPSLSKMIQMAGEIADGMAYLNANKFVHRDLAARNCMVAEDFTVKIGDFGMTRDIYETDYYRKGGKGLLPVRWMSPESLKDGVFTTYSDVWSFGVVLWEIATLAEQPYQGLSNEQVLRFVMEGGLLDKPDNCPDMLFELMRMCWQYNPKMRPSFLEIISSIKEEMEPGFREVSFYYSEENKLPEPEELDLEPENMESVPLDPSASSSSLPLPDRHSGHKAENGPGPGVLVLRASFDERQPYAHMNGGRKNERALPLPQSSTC
Description: Inhibition of IGF1R (unknown origin) at 10 uM

[7] = Fraction unbound in rat plasma by equilibrium dialysis method; type: ADME, cell-free
[8] = Thermodynamic solubility of the compound at pH 7.4; type: physicochemical; settings: buffer, read-out: Therm_solubility
[9] = Intrinsic clearance in human liver microsomes; type: ADME; settings: read-out: CLH
[10] = biological target: MAP kinase-activated protein kinase 2 (Homo sapiens) (UniProt P49137); assay: Binding affinity to phosphorylated full length 2H,15N-labeled MK2 (unknown origin) expressed in Escherichia coli by 2D-NMR analysis
Sequence of MAP kinase-activated protein kinase 2 (Homo sapiens) (P49137 whole entry, looked up): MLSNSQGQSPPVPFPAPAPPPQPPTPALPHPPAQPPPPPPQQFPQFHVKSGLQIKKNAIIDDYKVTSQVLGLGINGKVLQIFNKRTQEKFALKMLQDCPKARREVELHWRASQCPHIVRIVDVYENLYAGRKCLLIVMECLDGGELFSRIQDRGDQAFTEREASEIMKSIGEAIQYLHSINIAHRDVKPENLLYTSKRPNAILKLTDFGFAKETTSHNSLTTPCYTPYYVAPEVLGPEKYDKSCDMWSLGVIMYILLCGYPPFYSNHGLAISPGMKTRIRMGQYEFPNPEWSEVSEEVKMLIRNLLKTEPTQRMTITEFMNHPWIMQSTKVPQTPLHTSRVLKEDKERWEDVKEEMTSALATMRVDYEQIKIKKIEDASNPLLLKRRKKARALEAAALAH

[11] = Intrinsic clearance in rat hepatocytes assessed per 10^6 cells; type: ADME, cell-based, Hepatocyte; settings: read-out: CLH
[12] = biological target: T1, Mitogen-activated protein kinase 14; assay: Competitive inhibition of human recombinant 5'-c-myc, His6-tagged p38-alpha using MK2 (46-400) as substrate
[13] = biological target: T1, Mitogen-activated protein kinase 14; assay: Inhibition of p38-alpha in human PBMC assessed as inhibition of LPS-induced TNF-alpha production incubated for 30 mins prior to LPS challenge measured after 7 hrs by ELISA
[14] = biological target: T1, Mitogen-activated protein kinase 14; assay: Displacement of 1-[7-[3-[4-(aminomethyl)-1-piperidyl]propoxy]-6-methoxy-quinazolin-4-yl]-3-(2-chloro-6-methylphenyl)urea from GST-tagged phosphorylated p38-alpha (unknown origin) by surface plasmon resonance based ISA method
[15] = Lipophilicity, log D of the compound at pH 7.4; type: physicochemical; settings: buffer

In the case of Cc1ccccc1Oc1ccc(C(=O)NCc2ccncc2)cc1, the IC50 [1] is reported as greater than 10000 nM, the IC50 [2] is reported as 2000 nM and the IC50 [3] is reported as 5400 nM.

Compound N#Cc1ccccc1Oc1ccc(C(=O)NCc2ccccc2)cc1 has an IC50 (Cytochrome P450 3A4) greater than 10000 nM, an IC50 [4] of 1400 nM and an IC50 [1] greater than 10000 nM. The IC50 [2] was 450 nM and the IC50 [3] was greater than 100000 nM.

O=C(NCc1ccncc1)c1ccc(Oc2ccc(Cl)cc2)cc1 gave an IC50 (Cytochrome P450 3A4) of 1000 nM, an IC50 [1] greater than 10000 nM and an IC50 [2] of 2400 nM. It also gave an IC50 [3] of 10000 nM.

Compound CCCc1c(C(=O)Nc2cc(S(C)(=O)=O)ccc2C)cnn1-c1ccccc1 has an IC50 [1] greater than 10000 nM, an IC50 [2] of 190 nM and an IC50 [3] of 23000 nM.

Work on CCCc1c(C(=O)Nc2cc(S(=O)(=O)N(C)C)ccc2C)cnn1-c1ccccc1 yielded a fraction unbound [5] of 0.023, an inhibition [6] of 30% and a fraction unbound [7] of 0.031. The solubility thermodynamic [8] was 0.55 µM (≈ 0.235 µg/mL), the microsomal CLint [9] was 62 µL/min/mg and the Activity [10] was “inactive”. It also gave a hepatocyte CLint [11] of 42 µL/min/1e6 cells.

With CCCc1c(C(=O)Nc2cc(F)ccc2C)cnn1-c1ccccc1 the IC50 [1] was greater than 10000 nM, the IC50 [2] was 110 nM and the IC50 [3] was 2500 nM.

N#Cc1ccccc1Oc1ccc(C(=O)NCc2ccncn2)cc1 showed an IC50 (Cytochrome P450 3A4) greater than 10000 nM, a fraction unbound [5] of 0.27 and an IC50 [4] of 7100 nM. The IC50 [1] was greater than 10000 nM, the IC50 [2] was 2800 nM and the fraction unbound [7] was 0.2. The IC50 [3] was greater than 100000 nM, the solubility thermodynamic [8] was 360 µM (≈ 119 µg/mL) and the microsomal CLint [9] was less than 2 µL/min/mg. The hepatocyte CLint [11] was 23 µL/min/1e6 cells.

In the case of CCCc1c(C(=O)Nc2cc(C(=O)OC)ccc2C)cnn1-c1ccccc1, the IC50 [1] is reported as greater than 10000 nM, the IC50 [2] is reported as 490 nM and the IC50 [3] is reported as 500 nM.

Work on CCCc1c(C(=O)Nc2cc(S(=O)(=O)N(C)C)ccc2C)cnn1-c1ccc(Cl)cc1 yielded an IC50 [1] greater than 10000 nM, an IC50 [2] of 390 nM and an IC50 [3] of 20000 nM.

With CCCc1c(C(=O)Nc2cc(OCc3ccccc3)ccc2C)cnn1-c1ccccc1 the IC50 [1] was greater than 10000 nM, the IC50 [2] was greater than 100000 nM and the IC50 [3] was greater than 100000 nM.

Work on N#Cc1ccccc1Oc1ccc(C(=O)NCc2ccncc2)cc1 yielded an IC50 (Cytochrome P450 3A4) of 1000 nM, a fraction unbound [5] of 0.085 and an IC50 [4] of 25000 nM. For the same compound, the IC50 [1] was greater than 10000 nM, the IC50 [2] was 600 nM and the inhibition [6] was 30%. It also gave a fraction unbound [7] of 0.14, an IC50 [3] of 21000 nM and a solubility thermodynamic [8] of 120 µM (≈ 39.5 µg/mL). The microsomal CLint [9] was less than 2 µL/min/mg, the Ki [12] was 290 nM and the Activity [10] was “inactive”. The IC50 [13] was 5400 nM, the hepatocyte CLint [11] was 28 µL/min/1e6 cells and the Kd [14] was greater than 20000 nM.

With O=C(NCc1ccncc1)c1ccc(Oc2ccc(F)cc2)cc1 the IC50 (Cytochrome P450 3A4) was 1000 nM, the IC50 [1] was greater than 10000 nM and the IC50 [2] was 2100 nM. The IC50 [3] was 2300 nM.

CCCc1c(C(=O)Nc2cc(S(=O)(=O)N(C)C)ccc2C)cnn1Cc1ccccc1 gave an IC50 [1] greater than 10000 nM, an IC50 [2] of 53 nM and an IC50 [3] of 6300 nM.

CCCc1c(C(=O)Nc2cc(C(=O)O)ccc2C)cnn1-c1ccccc1 gave an IC50 [1] greater than 10000 nM, an IC50 [2] of 86 nM and an IC50 [3] of 4200 nM. The IC50 [13] was 21000 nM.

For O=C(NCc1ccncc1)c1ccc(Oc2ccccc2Cl)cc1, the IC50 [1] was greater than 10000 nM, the IC50 [2] was 1700 nM and the IC50 [3] was 1700 nM.

In the case of CCCc1c(C(=O)Nc2cc(S(=O)(=O)N(C)C)ccc2C)cnn1-c1cccnc1, the fraction unbound [5] is reported as 0.26, the IC50 [1] is reported as greater than 10000 nM and the IC50 [2] is reported as 270 nM. For the same compound, the fraction unbound [7] was 0.24, the IC50 [3] was greater than 30000 nM and the solubility thermodynamic [8] was 21 µM (≈ 8.98 µg/mL). For the same compound, the microsomal CLint [9] was 143 µL/min/mg, the logD [15] was 2.3 and the hepatocyte CLint [11] was 10 µL/min/1e6 cells.

N#Cc1ccccc1Oc1ccc(C(=O)NCc2cccnc2)cc1 showed an IC50 (Cytochrome P450 3A4) greater than 10000 nM, an IC50 [4] of 4700 nM and an IC50 [1] greater than 10000 nM. The IC50 [2] was 560 nM and the IC50 [3] was 15000 nM.

CCCc1c(C(=O)Nc2cc(O)ccc2C)cnn1-c1ccccc1 gave an IC50 [1] greater than 10000 nM, an IC50 [2] of less than 46 nM and an IC50 [3] of less than 46 nM.

CCCc1c(C(=O)Nc2cc(C#N)ccc2C)cnn1-c1ccccc1 gave an IC50 [4] of 210 nM, an IC50 [1] greater than 10000 nM and an IC50 [2] of 15 nM. The IC50 [3] was 890 nM.

CCCc1c(C(=O)Nc2cc(S(=O)(=O)N(C)C)ccc2C)cnn1CC(C)C showed an IC50 [1] greater than 10000 nM, an IC50 [2] of 76 nM and an IC50 [3] of 5400 nM.
